Reference: patent EP4778516A1, “CALCIFICATION ENHANCER FOR OSTEOBLAST MC3T3-E1 CELL” (Watanabe Oyster Laboratory Co., Ltd., priority 2023, dated 2025)

Tests used:
MC3T3-E1 cells [1] = assay: Osteoblast differentiation assay and Alizarin Red S staining (calcification); assay type: cell-based, mouse
Protocol: MC3T3-E1 cells (10^5 cells/ml medium per well in a 12-well plate) were cultured for 3 days in a-MEM (1.0 ml per well) containing 10% FBS and 1% P/S. Thereafter, the medium was replaced, as previously described, with calcification-promoting medium, that is, a-MEM supplemented with 10% FBS, 1% P/S, L-ascorbic acid ([…]), and 4 mM b- glycerophosphoric acid. DHMBA was added at a concentration of 1 or 10 mM, and the cells were cultured for 18 days, with the medium replaced every 3 days with fresh medium. On day 18 of culture, the cells were rinsed with PBS and fixed by addition of ice-cold 75% ethanol at 4°C for 30 minutes. Then, calcium deposition was visualized by staining with Alizarin Red S (40 mM, pH 6.2). After incubation at room temperature for 30 minutes, the staining solution was removed by thorough washing with distilled water. Stained cells on the plates were photographed under a microscope (×40) (Olympus IX71, Olympus Corp., Tokyo, Japan) and imaged using ImageJ2 software. For quantification, the stained cells in each plate were solubilized by addition of 10% cetylpyridinium chloride solution, and absorbance was measured at 570 nm.

[2] = test system: bone-metastatic prostate cancer cells; conditions: earlier demonstration by the present inventors; cited from earlier work
MC3T3-E1 cells [3] = assay: Cell death assay (count of attached cells after 48 hours from subconfluence); assay type: cell-based, mouse
Protocol: (§1) To evaluate the effects of DHMBA on cell death of osteoblasts MC3T3-E1, the cells (1×10^5/ml medium per well in a 24-well plate) were cultured in a-MEM containing 10% FBS and 1% P/S. After culturing for 3 days until reaching subconfluence, either a reagent vehicle (1% ethanol as final concentration) or DHMBA (0.1, 1, 10, 100, or 1000 mM) was added, and the cells were further cultured for 48 hours. After culture, to count the number of cells attached to each well, a […] containing 0.05% trypsin and EDTA (0.1 ml per well) was added, and then the culture plates were incubated at 37°C for 2 minutes. Subsequently, a-MEM (0.9 ml) containing 10% FBS and 1% P/S was added, and the cells were detached and mixed by pipetting. The cell suspension (0.1 ml) was mixed with 0.1 ml of 0.5% trypan blue staining solution. By this staining, […]. Viable cells were counted under a microscope (Olympus MTV-3) using a hemocytometer (Sigma-Aldrich, St. Louis, MO) and a cell counter (H-102P, Line Seiki Co., Ltd., Tokyo, Japan), and the average of two counts was calculated. Cell numbers were expressed as the number per well.

MC3T3-E1 cells [4] = assay: Cell proliferation assay (cell counting); assay type: cell-based, mouse
Protocol: To examine progression of cell proliferation, MC3T3-E1 cells (1×10^5/ml medium per well) were cultured using a 24-well plate in a-MEM supplemented with 10% FBS and 1% P/S at 37°C in a water-saturated atmosphere containing 5% CO2 and 95% air. The cells were cultured for 1, 2, 3, 4, or 5 days in the presence of a vehicle (1% ethanol as final concentration) or DHMBA (10 mM). In another experiment, to evaluate the effects of increased concentrations of DHMBA on MC3T3-E1 cells, the cells (1×10^5/ml per well) were cultured using a 24-well plate in DMEM (containing 10% FBS and 1% P/S). The cells were cultured for 3 days in the presence of either a reagent vehicle (1% ethanol as final concentration) or DHMBA (0.1, 1, 10, 100, or 1000 mM).
as §1

RAW264.7 cells = assay: TNF-a production assay (ELISA); assay type: cell-based, mouse; conditions: LPS 10 or 100 ng/ml, DHMBA 1 or 10 mM; Fig. 7A
Protocol: RAW264.7 cells (1× 10^5/ml per well) were cultured in DMEM containing 10% FBS and 1% P/S in a 24-well plate for 3 days until reaching subconfluence. […] The cells were detached from each culture dish to count the cell numbers as described in the section "Cell proliferation assay". […] The concentration of TNF-a in the medium was analyzed using a mouse TNF-a ELISA kit (catalog no. KHC301) purchased from Cayman Chemical Company (Ann Arbor, MI, USA) in accordance with the manufacturer's instructions. TNF-a production was expressed as the amount of TNF-a secreted into the medium in picograms per milliliter (pg/ml).

NF-kB = NF-kB reporter assay (luciferase); assay type: cell-based, mouse; conditions: Fig. 8C
Protocol: An NF-kB-responsive luciferase reporter assay (pNF-kB-Luc, BD Biosciences) was performed according to the method previously described by the present inventors. MC3T3-E1 cells (2×10^4 cells per well in […] in a 96-well plate) were cultured for 24 hours in a-MEM containing 10% FBS and 1% P/S. After culture, the medium was removed, and the cells were washed twice with a-MEM without FBS or antibiotics. a-MEM ([…]) without FBS or antibiotics was then added to each well containing the cells. A reporter plasmid or an empty vector control (pGL3-Basic) was transfected into MC3T3-E1 cells using Lipofectamine 2000 Reagent (Invitrogen) in a-MEM without FBS or antibiotics. Five hours later, the medium was replaced with a-MEM containing 10% FBS and 1% P/S, and the cells were stimulated with TNF-a (1 or 10 ng/ml) for 24 hours. In parallel, the cells were cultured with either a reagent vehicle (1% ethanol as final concentration) or DHMBA (1 or 10 mM). After culture, the cells were extracted with Passive Lysis Buffer (Promega Corp., Madison, WI), and luciferase activity was measured using a Luciferase Assay System (Promega Corp.) with a microplate reader (Turner Designs, Inc., Sunnyvale, CA, USA). Equal transfection efficiency among all plasmids was validated by using the luciferase reporter plasmid pRL-SV40 (Promega Corp., Madison, WI).

COc1c(O)cc(CO)cc1O [DHMBA, 3,5-dihydroxy-4-methoxybenzyl alcohol]
calcification of MC3T3-E1 cells (MC3T3-E1 cells [1]; DHMBA 1 or 10 mM, 18 days in calcification-promoting medium, Alizarin Red, absorbance 570 nm, Figs. 2A and 2B): enhanced | TNF-a-induced suppression of calcification of osteoblasts (MC3T3-E1 cells [1]; TNF-a 1 ng/ml plus DHMBA 1 or 10 mM, 18 days, Fig. 4): suppressed | metastatic activity of bone-metastatic prostate cancer cells [2]: suppressive effects | proliferation of bone-metastatic prostate cancer cells [2]: suppressive effects | number of cells attached to the dishes (cell death) (MC3T3-E1 cells [3]; DHMBA 0.1, 1, 10, or 100 mM, 48 hours after subconfluence, Fig. 1C): not changed | number of cells (cell death) (MC3T3-E1 cells [3]; DHMBA 1000 mM, 48 hours after subconfluence, Fig. 1C): significantly decreased | TNF-a-enhanced death of MC3T3-E1 cells (MC3T3-E1 cells [3]; TNF-a 1 or 10 ng/ml plus DHMBA 1 or 10 mM, 48 hours, Fig. 3B): suppressed | proliferation of MC3T3-E1 cells (MC3T3-E1 cells [4]; DHMBA 10 mM, cultured 1, 2, 3, 4, or 5 days, vs vehicle (1% ethanol), Fig. 1A): no significant change | proliferation of MC3T3-E1 cells (MC3T3-E1 cells [4]; DHMBA 0.1, 1, 10, or 100 mM, 3 days, Fig. 1B): not changed | cell proliferation (MC3T3-E1 cells [4]; DHMBA 1000 mM (highest concentration tested), 3 days, Fig. 1B): significant decrease | TNF-a-induced inhibition of cell proliferation (MC3T3-E1 cells [4]; TNF-a 1 or 10 ng/ml plus DHMBA 1 or 10 mM, 3 days, Fig. 3A): suppressed | LPS-induced increase of production of TNF-a in RAW264.7 cells (RAW264.7 cells): suppressed | NF-kB promoter activity in MC3T3-E1 cells (NF-kB; DHMBA in the absence of TNF-a): reduced | TNF-a-induced increase of NF-kB promoter activity in MC3T3-E1 cells (NF-kB; TNF-a 1 or 10 ng/ml plus, 24 hours): suppressed
